Results published in ChEMBL document CHEMBL1158235, “Dendroamides, new cyclic hexapeptides from a blue-green alga. Multidrug-resistance reversing activity of dendroamide A” (J Nat Prod, 1996).
Activity calls are given as the source filed them. The calls are words filed in the database; no cut-off is given here.

Assays:
Format in all cases: cell-based
[1] = test system: NCI/ADR-RES; test: Displacement of [3H]azidopine from p-glycoprotein expressed in human MCF7/ADR cells assessed as photoaffinity labeling reduction at 0.5 uM; parameters: scale not given: the % may be the effect or the level left
[2] = test system: MCF7/VP; test: Inhibition of MRP expressed in human MCF7/VP cells assessed as increase in cisplatin-induced cytotoxicity
[3] = biological target: T1, ATP-dependent translocase ABCB1 (Homo sapiens, UniProt P08183); test: Inhibition of p-glycoprotein expressing human MCF7/ADR cells assessed as increase in vinblastine sensitivity to cell killing at 0.6 uM after 48 hrs by SRB assay; conditions: nci/adr-res
[4] = test system: MCF7/VP; test: Inhibition of MRP expressed in human MCF7/VP cells assessed as increase in doxorubicin-induced cytotoxicity
[5] = biological target: T1, ATP-dependent translocase ABCB1; test: Inhibition of p-glycoprotein expressing human MCF7/ADR cells assessed as cell killing after 48 hrs by SRB binding assay in presence of 4 uM cisplatin; conditions: nci/adr-res
[6] = test system: MCF7/VP; test: Inhibition of MRP expressing human MCF7/VP cells assessed as increase in vincristine-induced cytotoxicity at 5 to 10 uM after 48 hrs by SRB binding assay
[7] = test system: MCF7/VP; test: Inhibition of MRP expressed in human MCF7/VP cells assessed as increase in etoposide-induced cytotoxicity
[8] = biological target: T1, ATP-dependent translocase ABCB1; test: Inhibition of p-glycoprotein expressing human MCF7/ADR cells assessed as cell killing after 48 hrs by SRB binding assay in presence of 200 uM actinomycin D; conditions: nci/adr-res
[9] = biological target: T1, ATP-dependent translocase ABCB1; test: Inhibition of p-glycoprotein expressing human MCF7/ADR cells assessed as cell killing after 48 hrs by SRB binding assay in presence of 15M daunomycin; conditions: nci/adr-res
[10] = biological target: T1, ATP-dependent translocase ABCB1; test: Inhibition of p-glycoprotein expressing human MCF7 cells assessed as [3H]vinblastine accumulation
[11] = biological target: T1, ATP-dependent translocase ABCB1; test: Inhibition of p-glycoprotein expressing human MCF7/ADR cells assessed as [3H]vinblastine accumulation treated at 5 uM measured after 60 mins; conditions: nci/adr-res, 1 h
[12] = test system: NCI/ADR-RES; test: Displacement of [3H]azidopine from p-glycoprotein expressed in human MCF7/ADR cells assessed as photoaffinity labeling reduction at 10 uM; parameters: scale not given: the % may be the effect or the level left
[13] = biological target: T1, ATP-dependent translocase ABCB1; test: Inhibition of p-glycoprotein expressing human MCF7/ADR cells assessed as [3H]vinblastine accumulation treated at 20 uM measured after 60 mins; conditions: nci/adr-res, 1 h
[14] = test system: MCF7/VP; test: Inhibition of MRP expressed in human MCF7/VP cells assessed as increase in vincristine-induced cytotoxicity at 20 uM after 48 hrs by SRB binding assay

T1 sequence (P08183 whole entry): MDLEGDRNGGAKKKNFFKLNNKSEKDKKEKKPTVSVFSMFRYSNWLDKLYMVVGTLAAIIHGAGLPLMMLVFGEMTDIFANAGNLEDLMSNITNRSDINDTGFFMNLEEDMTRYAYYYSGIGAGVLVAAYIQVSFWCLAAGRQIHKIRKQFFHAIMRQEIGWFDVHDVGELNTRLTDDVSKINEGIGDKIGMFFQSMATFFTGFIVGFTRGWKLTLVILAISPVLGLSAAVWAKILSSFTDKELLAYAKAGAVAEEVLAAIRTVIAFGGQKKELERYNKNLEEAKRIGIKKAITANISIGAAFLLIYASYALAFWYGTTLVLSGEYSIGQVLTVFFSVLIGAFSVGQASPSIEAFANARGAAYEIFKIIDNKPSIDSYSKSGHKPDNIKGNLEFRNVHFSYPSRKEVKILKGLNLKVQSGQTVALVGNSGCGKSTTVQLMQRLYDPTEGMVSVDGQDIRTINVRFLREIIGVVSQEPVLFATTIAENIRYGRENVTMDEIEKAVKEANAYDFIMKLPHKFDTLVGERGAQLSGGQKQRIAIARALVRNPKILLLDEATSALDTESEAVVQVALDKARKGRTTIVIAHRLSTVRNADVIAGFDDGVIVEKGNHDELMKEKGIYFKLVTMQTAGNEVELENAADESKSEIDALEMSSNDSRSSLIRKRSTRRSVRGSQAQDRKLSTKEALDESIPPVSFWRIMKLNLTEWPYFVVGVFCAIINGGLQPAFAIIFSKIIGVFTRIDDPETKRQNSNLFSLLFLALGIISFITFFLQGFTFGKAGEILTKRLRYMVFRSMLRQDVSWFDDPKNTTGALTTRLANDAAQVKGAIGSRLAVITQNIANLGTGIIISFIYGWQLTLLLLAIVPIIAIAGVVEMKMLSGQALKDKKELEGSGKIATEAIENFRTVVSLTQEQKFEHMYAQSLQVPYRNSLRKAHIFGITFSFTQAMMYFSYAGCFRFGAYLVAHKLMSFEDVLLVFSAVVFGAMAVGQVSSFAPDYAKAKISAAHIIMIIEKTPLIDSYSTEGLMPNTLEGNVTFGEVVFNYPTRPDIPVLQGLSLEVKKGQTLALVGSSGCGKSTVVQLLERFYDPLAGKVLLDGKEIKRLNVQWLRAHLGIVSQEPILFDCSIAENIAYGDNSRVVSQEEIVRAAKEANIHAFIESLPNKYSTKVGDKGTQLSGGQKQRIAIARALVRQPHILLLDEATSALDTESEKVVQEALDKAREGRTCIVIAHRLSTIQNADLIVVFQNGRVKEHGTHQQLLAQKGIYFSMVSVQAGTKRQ

Row | Compound | Activity [1] | Activity [2] | Activity [3] | Activity [4] | Activity [5] | Activity [6] | Activity [7] | Activity [8] | Activity [9] | Activity [10] | Activity [11] | Activity [12] | Activity [13] | Activity [14]
1 | Cc1oc2nc1C(=O)N[C@H](C(C)C)c1nc(cs1)C(=O)N[C@H](C)c1nc(cs1)C(=O)N[C@@H]2C [DENDROAMIDE A] | 50% | inactive | Active | Active | Not Active | Active | Active | Active | Active | Not Active | – | – | – | –
2 | CSCC[C@H]1NC(=O)c2csc(n2)[C@@H](C)NC(=O)c2nc(oc2C)[C@@H](C)NC(=O)c2csc1n2 [DENDROAMIDE B] | inactive | – | Not Active | – | Not Active | – | – | Not Active | Not Active | Not Active | Not Active | inactive | Not Active | –
3 | Cc1oc2nc1C(=O)N[C@H](C)c1nc(cs1)C(=O)N[C@H](CC[S+](C)[O-])c1nc(cs1)C(=O)N[C@@H]2C (stereo partly specified) [DENDROAMIDE C] | inactive | – | Not Active | – | Not Active | – | – | Not Active | Not Active | Not Active | Not Active | inactive | Not Active | –
4 | COc1ccc(CCN(C)CCCC(C#N)(c2ccc(OC)c(OC)c2)C(C)C)cc1OC (stereo unspecified) [VERAPAMIL] | – | – | – | – | – | – | – | – | – | Not Active | – | 50% | – | Active
